# Measurements as given in patent US20030144346A1, “Methods and compositions for regulation of 5-alpha reductase activity” (priority 1997, published 2003).
# pIC50: −log10 of the molar value. Read-outs that look alike come from different tables or passages of the source.
# Assays:
# [1] = molecular target: T1, type 1 human 5α-reductase (HRED1) (Homo sapiens, UniProt P18405); assay: Cell free assay of 5α-reductase, microsomes of rat 1A cells expressing type 1 isoenzyme (HRED1); format: biochemical; set-up: expressed in transfected cells; host or cells: rat 1A cells infected with pMV7 retrovirus; microsomes;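 further: microsomes from rat 1A cells expressing human type 1 5α-reductase, conversion of radiolabeled testosterone to dihydrotestosterone quantified by thin layer chromatography with radioanalytic scanning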
# T1 sequence (P18405 1-259): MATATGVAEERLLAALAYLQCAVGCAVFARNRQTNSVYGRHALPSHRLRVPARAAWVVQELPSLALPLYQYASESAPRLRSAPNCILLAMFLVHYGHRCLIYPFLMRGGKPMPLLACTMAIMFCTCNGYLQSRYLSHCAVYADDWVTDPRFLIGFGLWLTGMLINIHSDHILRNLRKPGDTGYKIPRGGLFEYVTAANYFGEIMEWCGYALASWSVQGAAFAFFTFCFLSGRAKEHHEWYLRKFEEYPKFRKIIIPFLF
# [2] = molecular target: T2, type 2 human 5α-reductase (HRED2) (Homo sapiens, UniProt P31213); assay: Cell free assay of 5α-reductase, microsomes of rat 1A cells expressing type 2 isoenzyme (HRED2); format: biochemical; set-up: expressed in transfected cells; host or cells: rat 1A cells infected with pMV7 retrovirus; microsomes;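 further: labeled testosterone and its product dihydrotestosterone measured in microsomal reaction extracts via thin layer chromatography plus radioanalytic scanning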
# T2 sequence (P31213 1-254): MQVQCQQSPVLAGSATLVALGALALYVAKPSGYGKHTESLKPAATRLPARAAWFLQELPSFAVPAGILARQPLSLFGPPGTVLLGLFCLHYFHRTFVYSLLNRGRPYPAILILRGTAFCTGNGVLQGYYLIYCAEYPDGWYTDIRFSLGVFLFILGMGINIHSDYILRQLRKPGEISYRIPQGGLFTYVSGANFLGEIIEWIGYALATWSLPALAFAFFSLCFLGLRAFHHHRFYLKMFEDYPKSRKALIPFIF
# [3] = 100 μM, cell free assay, Table 4
# [4] = cell free assay, Table 4 quinones, read-out: HRED1 IC50
# [5] = cell free assay, Table 4 quinones, read-out: HRED2 IC50
# [6] = 100 uM, cell free assay, Table 1, read-out: HRED1 % Inhibition @ 100 uM
# [7] = cell free assay, Table 1 flavanoids, read-out: HRED1 IC50
# [8] = 100 uM, cell free assay, Table 1, read-out: HRED2 % Inhibition @ 100 uM
# [9] = cell free assay, Table 1 flavanoids, read-out: HRED2 IC50
# [10] = 100 uM, cell free assay, Table 2, read-out: HRED1 % Inhibition @ 100 uM
# [11] = cell free assay, Table 2 catechols, read-out: HRED1 IC50
# [12] = 100 uM, cell free assay, Table 2, read-out: HRED2 % Inhibition @ 100 uM
# [13] = cell free assay, Table 2 catechols, read-out: HRED2 IC50
# [14] = cell-free assay, read-out: IC50, type 1 isoenzyme
# [15] = cell free assay, Table 3 curcumin and related compounds, read-out: HRED1 IC50
# [16] = read-out: IC50, type 2 isoenzyme
# [17] = 100 uM, cell free assay, Table 2
# [18] = 100 μM, cell free assay, Table 4, read-out: HRED1 % Inhibition @ 100 μM
# [19] = 100 μM, cell free assay, Table 4, read-out: HRED2 % Inhibition @ 100 μM
# [20] = 100 uM, cell free assay, Table 3
# [21] = 100 uM, cell free assay, Table 3, read-out: HRED1 % Inhibition @ 100 uM
# [22] = 100 uM, cell free assay, Table 3, read-out: HRED2 % Inhibition @ 100 uM
# [23] = 100 μM, cell free assay, Table 5
# [24] = cell free assay, Table 5 epigallocatechin derivatives, read-out: HRED1 IC50
# [25] = cell free assay, Table 5 epigallocatechin derivatives, read-out: HRED2 IC50
# [26] = 100 uM, cell free assay, Table 1
compound,measurement,setting,value
COC1=C(OC)C(=O)C(C/C=C(\C)CC/C=C(\C)CC/C=C(\C)CC/C=C(\C)CC/C=C(\C)CC/C=C(\C)CC/C=C(\C)CC/C=C(\C)CC/C=C(\C)CCC=C(C)C)=C(C)C1=O [Coenzyme q],HRED1 % Inhibition @ 100 μM,[1]; [3],77%
same,pIC50,[1]; [4],4.92
same,"inhibitory activity against type 1 isoenzyme, in words",[1]; cell-free assay,potent cell-free inhibitors
same,HRED2 % Inhibition @ 100 μM,[2]; [3],81%
same,pIC50,[2]; [5],4.66
same,"inhibitory activity against type 2 isoenzyme, in words",[2]; cell-free assay,potent cell-free inhibitors
O=c1cc(-c2ccccc2)oc2ccccc12 [Flavone],inhibition at 100 µM,[1]; [6],20%
same,pIC50,[1]; [7],< 4.00
same,inhibition at 100 µM,[2]; [8],-52%
same,pIC50,[2]; [9],< 4.00
O=c1c(Br)cc2c(-c3ccccc3S(=O)(=O)O)c3cc(Br)c(O)c(O)c3oc-2c1O [Bromopyrogallol Red],inhibition at 100 µM,[1]; [10],98%
same,pIC50,[1]; [11],5.15
same,inhibition at 100 µM,[2]; [12],58%
same,pIC50,[2]; [13],4.08
O=C1c2c(O)cc(O)cc2O[C@H](c2ccc(O)c(O)c2)[C@H]1O [Taxifolin],inhibition at 100 µM,[1]; [6],5%
same,pIC50,[1]; [7],< 4.00
same,pIC50,[1]; [14],< 4.00
same,inhibition at 100 µM,[2]; [8],5%
same,pIC50,[2]; [9],< 4.00
same,pIC50,"[2]; cell-free assay, read-out: IC50, type 2 isoenzyme",< 4.00
O=C1c2ccccc2C(=O)c2ccccc21 [Anthraquinone],pIC50,[1],< 4.00
same,inhibition at 100 µM,[1]; read-out: HRED1 % Inhibition @ 100 μM,6%
same,pIC50,"[1]; read-out: HRED1 IC50, cell free assay, Table 4 quinones",< 4.00
same,pIC50,[2],< 4.00
same,inhibition at 100 µM,[2]; read-out: HRED2 % Inhibition @ 100 μM,9%
same,pIC50,"[2]; read-out: HRED2 IC50, cell free assay, Table 4 quinones",< 4.00
COc1cc(/C=C/CO)ccc1O [Coniferol],pIC50,[1]; [15],< 4.00
same,pIC50,[1]; [14],< 4.00
same,pIC50,[2]; [16],< 4.00
OC1c2ccccc2-c2ccccc2C1O (stereo not shown) [Cnc],HRED1 % Inhibition @ 100 uM,[1]; [17],42%
same,pIC50,[1]; [11],< 4.00
same,HRED2 % Inhibition @ 100 uM,[2]; [17],(−75) %
same,pIC50,[2]; [13],< 4.00
O=c1ccc2c(-c3ccccc3S(=O)(=O)O)c3ccc(O)c(O)c3oc-2c1O [Pyrogallol Red],pIC50,[1]; [11],4.82
same,pIC50,[2]; [13],< 4.00
O=C1c2ccccc2C(=O)c2c(O)ccc(O)c21 [Quinizarin],inhibition at 100 µM,[1]; [18],26%
same,pIC50,[1]; [4],< 4.00
same,inhibition at 100 µM,[2]; [19],7%
same,pIC50,[2]; [5],< 4.00
O=c1oc2c(O)c(O)cc3c(=O)oc4c(O)c(O)cc1c4c23 [Ellagic Acid],inhibition at 100 µM,[1]; [10],7%
same,pIC50,[1]; [11],< 4.00
same,inhibition at 100 µM,[2]; [12],9%
same,pIC50,[2]; [13],< 4.00
C=CCc1ccc(O)c(OC)c1 [Eugenol],pIC50,[1]; [15],< 4.00
same,pIC50,[1]; [14],< 4.00
same,inhibition at 100 µM,[1]; read-out: HRED1 % Inhibition @ 100 uM,0%
same,inhibition at 100 µM,[2]; read-out: HRED2 % Inhibition @ 100 uM,50%
same,pIC50,[2]; [16],< 4.00
COc1cc(CCC(=O)CC(=O)CCc2ccc(O)cc2)ccc1O [Demethoxytetrahydrocurcumin],HRED1 % Inhibition @ 100 uM,[1]; [20],23%
same,pIC50,[1]; [15],< 4.00
same,HRED2 % Inhibition @ 100 uM,[2]; [20],42%
same,pIC50,"[2]; cell free assay, Table 3 curcumin and related compounds, read-out: HRED2 IC50",< 4.00
O=c1c(O)cccc2cc(O)c(O)c(O)c12 [Purpurogallin],pIC50,[1]; [11],4.52
same,pIC50,[2]; [13],< 4.00
O=c1cc(-c2ccccc2)oc2cc(O)cc(O)c12 [Chrysin],pIC50,[1]; [7],< 4.00
same,pIC50,[2]; [9],< 4.00
Oc1cc2c(cc1O)[C@@H]1c3ccc(O)c(O)c3OC[C@]1(O)C2 [Hematoxylin],inhibition at 100 µM,[1]; [10],59%
same,pIC50,[1]; [11],4.08
same,inhibition at 100 µM,[2]; [12],38%
same,pIC50,[2]; [13],< 4.00
C[C@@H]1O[C@@H](OC[C@H]2O[C@@H](Oc3c(-c4ccc(O)c(O)c4)oc4cc(O)cc(O)c4c3=O)[C@H](O)[C@@H](O)[C@@H]2O)[C@H](O)[C@H](O)[C@H]1O [Rutin],pIC50,[1]; [7],< 4.00
same,pIC50,[1]; [14],< 4.00
same,pIC50,[2]; [9],< 4.00
same,pIC50,[2]; [16],< 4.00
CC(/C=C/C=C(\C)C(=O)O)=C\C=C\C=C(C)\C=C\C=C(/C)C(=O)O [Crocetin],pIC50,"[1]; cell free assay, Table 6 fatty acids, read-out: HRED1 IC50",5.15
same,pIC50,"[2]; cell free assay, Table 6 fatty acids, read-out: HRED2 IC50",< 4.00
O=c1c(O)c(-c2ccc(O)cc2O)oc2cc(O)cc(O)c12 [Morin],pIC50,[1]; [7],< 4.00
same,pIC50,[2]; [9],< 4.00
COc1cc(CNC(=O)CCCC/C=C/C(C)C)ccc1O [Capsaicin],pIC50,[1],< 4.00
same,inhibition at 100 µM,[1]; [21],0%
same,pIC50,[1]; [15],< 4.00
same,pIC50,[2],< 4.00
same,inhibition at 100 µM,[2]; [22],8%
same,pIC50,[2]; read-out: HRED2 IC50,< 4.00
O=C(NCCc1cc(O)c(O)c(O)c1)c1cc(O)c(O)c(O)c1 [HZIV 275],HRED1 % Inhibition @ 100 uM,[1]; [17],10%
same,pIC50,[1]; [11],< 4.00
same,HRED2 % Inhibition @ 100 uM,[2]; [17],6%
same,pIC50,[2]; [13],< 4.00
O=C1c2cccc(O)c2C(=O)c2cccc(O)c21 [Anthrarufin],HRED1 % Inhibition @ 100 μM,[1]; [3],67%
same,inhibition at 100 µM,[1]; [18],67%
same,pIC50,[1]; [4],4.40
same,HRED2 % Inhibition @ 100 μM,[2]; [3],13%
same,inhibition at 100 µM,[2]; [19],13%
same,pIC50,[2]; [5],< 4.00
CC(C)(C)c1cc(O)ccc1O [T-butylhydroxyquinone],HRED1 % Inhibition @ 100 μM,[1]; [3],19%
same,pIC50,[1]; [4],< 4.00
same,HRED2 % Inhibition @ 100 μM,[2]; [3],4%
same,pIC50,[2]; [5],< 4.00
O=C(OC1Cc2c(O)cc(O)cc2OC1c1cc(O)c(O)c(O)c1)c1ccccc1 (stereo not shown) [HZIV 74],HRED1 % Inhibition @ 100 μM,[1]; [23],85%
same,pIC50,[1]; [24],4.32
same,HRED2 % Inhibition @ 100 μM,[2]; [23],24%
same,pIC50,[2]; [25],< 4.00
NCCc1cc(O)c(O)c(O)c1 [Hydroxydopamine],HRED2 % Inhibition @ 100 uM,[2]; [17],41%
O=C(O)OC1Cc2c(O)cc(O)cc2OC1c1cc(O)c(O)c(O)c1 (stereo not shown) [HZIV 109],HRED1 % Inhibition @ 100 μM,[1]; [23],17%
same,pIC50,[1]; [24],< 4.00
same,HRED2 % Inhibition @ 100 μM,[2]; [23],0%
same,pIC50,[2]; [25],< 4.00
COc1cc(C=CC=O)ccc1O [4-hydroxy-3-methoxycinnamaldehyde],inhibition at 100 µM,[1]; [21],10%
same,pIC50,[1]; [15],< 4.00
same,inhibition at 100 µM,[2]; [22],-60%
same,pIC50,[2]; read-out: HRED2 IC50,< 4.00
CC(C)=CCC1=C(O)C(=O)c2ccccc2C1=O [Lapachol],inhibition at 100 µM,[1]; [18],30%
same,pIC50,[1]; [4],< 4.00
same,inhibition at 100 µM,[2]; [19],9%
same,pIC50,[2]; [5],< 4.00
COc1cc2ccc(=O)oc2c(O)c1O [Fraxetin],pIC50,[1]; [11],< 4.00
same,pIC50,[2]; [13],< 4.00
O=C1c2ccc(O)cc2C(=O)c2ccc(O)cc21 [Anthraflavic Acid],inhibition at 100 µM,[1]; [18],27%
same,pIC50,[1]; [4],< 4.00
same,inhibition at 100 µM,[2]; [19],22%
same,pIC50,[2]; [5],< 4.00
O=c1cc(-c2ccccc2)oc2c1ccc1ccccc12 [Alpha-napthoflavone],HRED1 % Inhibition @ 100 uM,[1]; [26],6%
same,pIC50,[1]; [7],< 4.00
same,HRED2 % Inhibition @ 100 uM,[2]; [26],(−13) %
same,pIC50,[2]; [9],< 4.00
